Measured values: PMC7129073 (Clinical Microbiology and Infection, 2015)
Values after ≈ are worked out from the molar mass of the structure shown. Read-outs that look alike come from different tables or passages of the source.

Legend:
Enterobacteriaceae = assay: SMART 2003 Europe, microdilution; type: cell-based; conditions: 1948 isolates
S. aureus ATCC 29213 = assay: Cefoxitin Neo-Sensitabs tablet diffusion, control strain; type: cell-based; conditions: Staphylococcus aureus, ATCC29213, read-out: zone diameter
[1] = system: inducible Enterobacteriaceae; assay: SMART 2003, intraabdominal isolates; type: cell-based
E. coli [2] = assay: SMART 2003 Europe, microdilution; type: cell-based, Escherichia coli; conditions: 1106 isolates
S. aureus ATCC 25923 = assay: Cefoxitin Neo-Sensitabs tablet diffusion, control strain; type: cell-based; conditions: Staphylococcus aureus, ATCC25923, read-out: zone diameter
K. pneumoniae [3] = assay: MIC; type: cell-based, Klebsiella pneumoniae; conditions: for MIC: Klebsiella pneumoniae
Klebsiella = assay: SMART 2003 Europe, microdilution; type: cell-based, Klebsiella spp.; conditions: 341 isolates
E. coli [4] = assay: Resistance of UTI isolates of renal transplant recipients; type: cell-based, Escherichia coli; conditions: 75 isolates
Shigella spp. = assay: Disk diffusion, stool isolates Tehran; type: cell-based; conditions: 96 isolates
Nocardia spp. = assay: E-test on Mueller Hinton agar, 81 clinical isolates; type: cell-based; conditions: for MIC50 / MIC90: Nocardia
N.gonorrhoeae = assay: microbe, parasite or virus in culture; type: cell-based; conditions: Neisseria gonorrhoeae
Acinetobacter = assay: Disk diffusion; type: cell-based; conditions: 37 isolates selected as resistant to beta-lactams
[5] = system: viridans group streptococci (VGS); assay: MIC; type: cell-based
S. pneumoniae = assay: PROTEKT Italy, NCCLS microdilution; type: cell-based, Streptococcus pneumoniae
N. farcinica strain = assay: E-test on Mueller-Hinton agar; type: cell-based; conditions: Nocardia farcinica
Pseudomonas spp. = assay: MIC; type: cell-based
E. coli [6] = assay: E-test susceptibility; type: cell-based, Escherichia coli
Gram-negative rods = assay: Microscan MIC, blood culture isolates; type: cell-based
K. pneumoniae [7] = assay: E-test susceptibility; type: cell-based, Klebsiella pneumoniae
Pseudomonas aeruginosa = assay: MIC, strains from cystic fibrosis patients; conditions: by MIC
K. oxytoca = assay: E-test susceptibility; type: cell-based, Klebsiella oxytoca
[8] = system: Pseudomonas putida clinical isolates; assay: Agar dilution MIC; type: cell-based
K. oxytoca isolate = assay: MIC of qnr-positive SHV-12 producer; type: cell-based; conditions: Klebsiella oxytoca
[9] = system: Streptococcus agalactiae strains P0162 and P0425; assay: Microdilution; type: cell-based
Salmonella enterica = assay: VITEK, NCCLS microdilution and disc diffusion of quinolones; type: cell-based
Haemophilus influenzae = assay: Susceptibility testing; type: cell-based; conditions: conjunctival isolates 2000–2004
Staphylococcus aureus = assay: Susceptibility testing; type: cell-based; conditions: conjunctival isolates 2000–2004
Streptococcus pneumoniae = assay: Susceptibility testing; type: cell-based; conditions: 99 isolates tested
[10] = system: Salmonella serotype Enteritidis; assay: Disk diffusion, food isolates Spain; type: cell-based; conditions: n = 96
[11] = system: Salmonella serotype Typhimurium; assay: Disk diffusion, food isolates Spain; type: cell-based; conditions: n = 53
[12] = system: Salmonella, other 49 serotypes; assay: Disk diffusion, food isolates Spain; type: cell-based; conditions: n = 115
[13] = system: glycopeptide intermediate Staphylococcus species (GISS); assay: VITEK II, screening plate and E test, blood isolates; type: cell-based, coagulase-negative Staphylococci; conditions: 73 GISS strains
Escherichia coli (ECO) = assay: Broth microdilution; type: cell-based; conditions: 2001

CO[C@@]1(NC(=O)Cc2cccs2)C(=O)N2C(C(=O)O)=C(COC(N)=O)CS[C@@H]21 [cefoxitin]
per cent susceptible (Enterobacteriaceae): 82%
zone of inhibition at 10 µg/disc (S. aureus ATCC 29213): 21 to 23 mm
zone of inhibition at 30 µg/disc (S. aureus ATCC 29213): 27 to 29 mm
zone of inhibition at 60 µg/disc (S. aureus ATCC 29213): 29 to 33 mm
% susceptible ([1]; A/P (N = 200)): 27%
% susceptible ([1]; EU (N = 354)): 29%
% susceptible ([1]; LA (N=113)): 30%
% susceptible ([1]; NA (N = 163)): 23%
per cent susceptible (E. coli [2]): 94%
zone of inhibition at 10 µg/disc (S. aureus ATCC 25923): 22 to 23 mm
zone of inhibition at 30 µg/disc (S. aureus ATCC 25923): 27 to 29 mm
zone of inhibition at 60 µg/disc (S. aureus ATCC 25923): 32 to 33 mm
MIC (K. pneumoniae [3]): > 64 µg/mL
per cent susceptible (Klebsiella): 92%

CO/N=C(\C(=O)N[C@@H]1C(=O)N2C(C(=O)O)=C(CSc3nc(=O)c(=O)[nH]n3C)CS[C@H]12)c1csc(N)n1 [ceftriaxone]
per cent susceptible (Enterobacteriaceae): 91%
rate of resistance (E. coli [4]): 1%
sensitive (Shigella spp.): 100%
MIC50 (Nocardia spp.): 8 µg/mL (≈ 14.4 µM)
MIC90 (Nocardia spp.): > 256 µg/mL
% susceptible ([1]; A/P (N = 200)): 60%
% susceptible ([1]; EU (N = 354)): 79%
% susceptible ([1]; LA (N=113)): 71%
% susceptible ([1]; NA (N = 163)): 75%
MIC (N.gonorrhoeae; strain 76mu6): 0.12 µg/mL (≈ 0.216 µM)
MIC (N.gonorrhoeae; strain 92mu6): 0.015 µg/mL (≈ 0.027 µM)
MIC (N.gonorrhoeae; strain 92mu13): 0.008 µg/mL (≈ 0.0144 µM)
resistant isolates (Acinetobacter): 75.7%
MIC50 [5]: 0.06 µg/mL (≈ 0.108 µM)
MIC90 [5]: 0.5 µg/mL (≈ 0.902 µM)
susceptible (S. pneumoniae; year 1: 2002): 88.9%
susceptible (S. pneumoniae; year 2: 2003): 93.7%
per cent susceptible (Klebsiella): 89%

C[C@@H](O)[C@H]1C(=O)N2C(C(=O)O)=C(S[C@@H]3CN[C@H](C(=O)N(C)C)C3)[C@H](C)[C@H]12 [meropenem]
MIC (N. farcinica strain): > 32 µg/mL
per cent susceptible (Enterobacteriaceae): >99%
susceptible strains (Pseudomonas spp.): 98%
Susceptible isolates (E. coli [6]; ICU, SRGA breakpoints, tigecycline tentative S ≤2 μg/ml): 100%
Susceptible isolates (E. coli [6]; non ICU): 99%
susceptible strains (n/N) (Gram-negative rods): 16/16
% susceptible ([1]; A/P (N = 200)): 100%
% susceptible ([1]; EU (N = 354)): 99%
% susceptible ([1]; LA (N=113)): 98%
% susceptible ([1]; NA (N = 163)): 99%
per cent susceptible (E. coli [2]): >99%
resistant isolates (Acinetobacter): 0.0%
Susceptible isolates (K. pneumoniae [7]; ICU): 100/100%
Susceptible isolates (K. pneumoniae [7]; non ICU): 100/100%
Susceptible isolates (Pseudomonas aeruginosa): 96%
MIC (K. pneumoniae [3]): 4 to 16 µg/mL (≈ 10.4 to 41.7 µM)
Susceptible isolates (K. oxytoca; ICU): 100/100%
Susceptible isolates (K. oxytoca; non ICU): 100/100%
per cent susceptible (Klebsiella): 99%

CCn1cc(C(=O)O)c(=O)c2cc(F)c(N3CCNCC3)cc21 [norfloxacin]
MIC [8]: > 128 µg/mL
MIC (K. oxytoca isolate): < 0.1 µg/mL
MIC ([9]; strain P0162 (ParC Ser79Phe, GyrA Glu85Ala)): > 256 µg/mL
MIC ([9]; strain P0425 (ParC Ser79Phe, GyrA Glu85Lys)): > 256 µg/mL
sensitive (Shigella spp.): 100%
MIC (Salmonella enterica; read-out: NCCLS MIC, 37 NAL-R strains): 0.54 µg/mL (≈ 1.69 µM)
MIC (Salmonella enterica; read-out: NCCLS MIC, NAL-S strains): ≤ 0.06 µg/mL
MIC (Salmonella enterica; read-out: VITEK MIC, 37 strains): 2 µg/mL (≈ 6.26 µM)
MIC (Salmonella enterica; read-out: VITEK MIC, five strains): < 0.5 µg/mL
resistant isolates (Acinetobacter): 100.0%

NC[C@H]1O[C@H](O[C@H]2[C@H](O)[C@@H](O[C@H]3O[C@H](CO)[C@@H](O)[C@H](N)[C@H]3O)[C@H](N)C[C@@H]2N)[C@H](N)C[C@@H]1O [tobramycin]
resistant isolates (Haemophilus influenzae): 2.6%
per cent susceptible (Enterobacteriaceae): 93%
resistant isolates (Staphylococcus aureus): 14.6%
resistant isolates (Streptococcus pneumoniae): 49.5%
resistance rate (NCCLS M100-S13) [10]: 1%
resistance rate (NCCLS M100-S13) [11]: 4%
resistance rate (NCCLS M100-S13) [12]: 0%
MIC50 (Nocardia spp.): 4 µg/mL (≈ 8.56 µM)
MIC90 (Nocardia spp.): 12 µg/mL (≈ 25.7 µM)
MIC range (Nocardia spp.; read after 48 and 72 h): <0.016 to 24 µg/mL
% susceptible ([1]; A/P (N = 200)): 77%
% susceptible ([1]; EU (N = 354)): 93%
% susceptible ([1]; LA (N=113)): 79%
% susceptible ([1]; NA (N = 163)): 93%
per cent susceptible (E. coli [2]): 92%
resistant isolates (Acinetobacter): 10.8%
resistance rate [13]: 91,8%
susceptible (Escherichia coli (ECO); NAL-resistant isolates): 71.4%
susceptible (Escherichia coli (ECO); NAL-susceptible isolates): 95.0%
susceptibility category (K. pneumoniae [3]; BSAC): resistant
per cent susceptible (Klebsiella): 91%

Ampicillin/ Sulbactam [A/S]
rate of resistance (E. coli [4]): 34%
resistant isolates (Acinetobacter): 10.8%
